From patent US20250346575A1, “ISOINDOLINONE DERIVATIVE HAVING GLUTARIMIDE MOTHER NUCLEUS, AND USE THEREOF” (KOREA RESEARCH INSTITUTE OF CHEMICAL TECHNOLOGY, priority 2021, published 2025)

Assays:
Cancer cells (KG-1) = assay: Cytotoxicity assay, WST-1, KG-1; format: cell-based; settings: for IC50: Homo sapiens, KG-1 cells, 72 hours, WST-1; for cytotoxic activity against KG-1 and NCI-H1155 cancer cells (in words): R1 bicyclic heteroaryl compared to monocyclic aryl (comparative substance) or heteroaryl (Compounds 37 and 38)
Method: To evaluate the effect of the compounds of the present disclosure on cancer cells, a cytotoxicity assay was conducted as follows.
Cancer cells (KG-1) were seeded at a concentration of 10,000 cells per well into a 96-well plate. Then, the cells were treated with predetermined concentrations of compounds of the Examples and comparative substances (comparative compounds 1, 2, 3). After 72 hours, the cells were incubated with WST-1 reagent for one hour. Then, absorbance was measured at 450 nm using a spectramax spectrophotometer to assess the degree of cancer cell apoptosis. The IC50 (μM) values were calculated using the measured values with the GraphPad Prism program and the measurements are summarized in Table 1.

GSPT1 protein = biological target: T1, GSPT1 protein (Homo sapiens, UniProt P15170+Q96SW2); assay: Substrate protein degradation activity of CRBN (Western blot); format: cell-based; settings: KG-1 cell lines, 6 hours, FIG. 1
T1 construct: endogenous in cells; host or cells: KG-1 cells
T1 sequence (P15170 whole entry): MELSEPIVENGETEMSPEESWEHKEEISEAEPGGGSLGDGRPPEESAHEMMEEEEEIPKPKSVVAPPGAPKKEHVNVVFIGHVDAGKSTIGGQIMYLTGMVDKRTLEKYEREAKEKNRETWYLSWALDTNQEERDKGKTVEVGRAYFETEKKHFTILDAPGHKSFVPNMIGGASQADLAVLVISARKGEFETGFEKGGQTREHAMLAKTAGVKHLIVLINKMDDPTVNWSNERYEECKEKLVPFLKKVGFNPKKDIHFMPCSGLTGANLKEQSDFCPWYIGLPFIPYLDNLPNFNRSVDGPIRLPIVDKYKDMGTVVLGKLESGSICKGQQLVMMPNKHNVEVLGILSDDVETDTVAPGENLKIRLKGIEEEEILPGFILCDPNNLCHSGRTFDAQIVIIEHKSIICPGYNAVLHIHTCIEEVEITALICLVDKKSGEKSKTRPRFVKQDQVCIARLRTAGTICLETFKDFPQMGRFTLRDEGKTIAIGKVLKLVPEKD
T1 sequence (Q96SW2 whole entry): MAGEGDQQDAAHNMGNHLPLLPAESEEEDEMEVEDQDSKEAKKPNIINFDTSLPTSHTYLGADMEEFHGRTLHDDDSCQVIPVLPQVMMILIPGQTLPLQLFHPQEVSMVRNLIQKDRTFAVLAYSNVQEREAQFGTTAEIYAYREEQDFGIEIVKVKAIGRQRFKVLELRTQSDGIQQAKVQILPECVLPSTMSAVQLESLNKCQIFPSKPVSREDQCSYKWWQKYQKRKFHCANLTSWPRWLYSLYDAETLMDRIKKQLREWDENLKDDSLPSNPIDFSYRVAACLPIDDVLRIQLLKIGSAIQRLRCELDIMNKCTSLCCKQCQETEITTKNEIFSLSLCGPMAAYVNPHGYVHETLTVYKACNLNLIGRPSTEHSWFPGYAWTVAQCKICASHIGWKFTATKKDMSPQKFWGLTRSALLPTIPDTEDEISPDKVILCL
T1 sequence (Q16531 whole entry partner): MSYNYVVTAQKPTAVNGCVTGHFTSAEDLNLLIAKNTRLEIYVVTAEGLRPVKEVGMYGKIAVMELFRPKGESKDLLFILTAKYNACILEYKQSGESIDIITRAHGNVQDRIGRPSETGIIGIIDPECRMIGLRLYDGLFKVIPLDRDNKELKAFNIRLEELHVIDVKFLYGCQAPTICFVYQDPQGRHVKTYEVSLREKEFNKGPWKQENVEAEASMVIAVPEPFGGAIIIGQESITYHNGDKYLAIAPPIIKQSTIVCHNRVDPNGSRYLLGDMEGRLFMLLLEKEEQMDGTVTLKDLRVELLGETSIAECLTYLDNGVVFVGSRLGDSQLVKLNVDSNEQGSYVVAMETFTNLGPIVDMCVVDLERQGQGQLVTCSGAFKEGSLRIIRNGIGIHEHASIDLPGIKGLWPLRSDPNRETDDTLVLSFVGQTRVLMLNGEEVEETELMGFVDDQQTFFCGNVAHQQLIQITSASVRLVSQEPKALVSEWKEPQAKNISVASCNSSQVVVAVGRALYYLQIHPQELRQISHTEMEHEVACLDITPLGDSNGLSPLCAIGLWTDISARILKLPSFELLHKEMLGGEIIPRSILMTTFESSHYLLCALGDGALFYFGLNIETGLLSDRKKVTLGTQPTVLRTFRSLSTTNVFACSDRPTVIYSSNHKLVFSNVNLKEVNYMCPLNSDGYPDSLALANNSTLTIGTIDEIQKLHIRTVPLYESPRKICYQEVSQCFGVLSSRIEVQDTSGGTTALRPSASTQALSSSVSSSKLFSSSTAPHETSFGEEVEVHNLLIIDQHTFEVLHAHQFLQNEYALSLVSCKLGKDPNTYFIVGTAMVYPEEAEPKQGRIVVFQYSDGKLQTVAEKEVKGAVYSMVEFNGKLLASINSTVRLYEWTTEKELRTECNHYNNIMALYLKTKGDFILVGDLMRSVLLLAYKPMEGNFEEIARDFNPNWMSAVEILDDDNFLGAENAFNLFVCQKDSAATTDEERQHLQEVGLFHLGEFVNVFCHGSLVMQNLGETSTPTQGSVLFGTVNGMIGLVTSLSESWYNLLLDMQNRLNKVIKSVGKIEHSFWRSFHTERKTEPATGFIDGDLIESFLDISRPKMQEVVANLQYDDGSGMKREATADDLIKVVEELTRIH
From the text: Examination was made to determine whether the compounds of the present disclosure bind to cereblon (CRBN) and inhibit the function of CRBN. In this regard, the compounds were investigated for degradation activity for Ikaros (IKZF1) protein (Chamberlain, P. P. et al., 2014) or GSPT1 protein (Matyskiela, M. E. et al., 2016) which CRBN protein degrades when binding to thalidomide and analogs thereof.
In order to assay the compounds according to the present disclosure for degradation activity for Ikaros (IKZF1) protein or GSPT1 protein, experiments were carried out as follows.
KG-1 cells were seeded at a density of 5×10^5 cells per well into 12-well plates, and each compound was added at predetermined concentration to the wells. After 6 hours, cell lysates were collected using TBSN buffer. The degradation activity of Ikaros protein was assessed using an antibody against Ikaros protein, and the degradation activity of GSPT1 protein was evaluated using an antibody against GSPT1 protein through Western blot analysis. In this regard, equal amounts of protein were loaded into each well of a 4-15% gradient gel, and after electrophoresis, proteins were transferred to a PVDF membrane. Each protein was then bound with primary antibodies, followed by the attachment of HRP-conjugated secondary antibodies, and developed using an HRP substrate.

SMILES	IC50 (Cancer cells (KG-1))	cytotoxic activity against KG-1 and NCI-H1155 cancer cells (in words) (Cancer cells (KG-1))	degradation of GSPT1 protein (GSPT1 protein)
O=C1CCC(N2Cc3cc(CNC(=O)c4ncc(-c5cccc(Cl)c5)cn4)ccc3C2=O)C(=O)N1 (centres unmarked) [Compound 20, 5-(3-Chlorophenyl)-N-((2-(2,6-dioxopiperidin-3-yl)-1-oxoisoindolin-5-yl)methyl)pyrimidine-2-carboxamide]	0.0001 to 0.01 µM	–	–
O=C1CCC(N2Cc3cc(CNC(=O)c4nc5cc(Cl)c(Cl)cc5[nH]4)ccc3C2=O)C(=O)N1 (centres unmarked) [Compound 16, 5,6-dichloro-N-((2-(2,6-dioxopiperidin-3-yl)-1-oxoisoindolin-5-yl)methyl)-1H-benzo[d]imidazole-2-carboxamide]	0.01 to 1 µM	–	–
O=C1CCC(N2Cc3cc(CNC(=O)c4cc(-c5cccc(Cl)c5)on4)ccc3C2=O)C(=O)N1 (centres unmarked) [Compound 19, 5-(3-Chlorophenyl)-N-((2-(2,6-dioxopiperidin-3-yl)-1-oxoisoindolin-5-yl)methyl)isoxazole-3-carboxamide]	0.0001 to 0.01 µM	–	–
Cc1ccc(-c2cc(C(=O)NCc3ccc4c(c3)CN(C3CCC(=O)NC3=O)C4=O)n[nH]2)c(C)c1 (centres unmarked) [Compound 29, 5-(2,4-Dimethylphenyl)-N-((2-(2,6-dioxopiperidin-3-yl)-1-oxoisoindolin-5-yl)methyl)-1H-pyrazole-3-carboxamide]	0.0001 to 0.01 µM	–	–
O=C1CCC(N2Cc3cc(CNC(=O)c4c[nH]c5ccc(Cl)cc45)ccc3C2=O)C(=O)N1 (centres unmarked) [Compound 7, 5-Chloro-N-((2-(2,6-dioxopiperidin-3-yl)-1-oxoisoindolin-5-yl)methyl)-1H-indole-3-carboxamide]	0.01 to 1 µM	more potent cytotoxic activity	–
O=C1CCC(N2Cc3cc(CNC(=O)c4noc5cc(Cl)ccc45)ccc3C2=O)C(=O)N1 (centres unmarked) [Compound 10, 6-Chloro-N-((2-(2,6-dioxopiperidin-3-yl)-1-oxoisoindolin-5-yl)methyl)benzo[d]isoxazole-3-carboxamide]	0.0001 to 0.01 µM	more potent cytotoxic activity	selectively promote the degradation of GSPT1 protein
Cc1c(C(=O)NCc2ccc3c(c2)CN(C2CCC(=O)NC2=O)C3=O)nn(-c2ccccc2)c1-c1cccc(Cl)c1 (centres unmarked) [Compound 42, 5-(3-chlorophenyl)-N-((2-(2,6-dioxopiperidin-3-yl)-1-oxoisoindolin-5-yl)methyl)-4-methyl-1-phenyl-1H-pyrazole-3-carboxamide]	0.0001 to 0.01 µM	–	–
O=C1CCC(N2Cc3cc(CNC(=O)c4c[nH]c5cc(Cl)ccc45)ccc3C2=O)C(=O)N1 (centres unmarked) [Compound 6, 6-chloro-N-((2-(2,6-dioxopiperidin-3-yl)-1-oxoisoindolin-5-yl)methyl)-1H-indole-3-carboxamide]	0.01 to 1 µM	–	–
Cn1cc(Br)cc1C(=O)NCc1ccc2c(c1)CN(C1CCC(=O)NC1=O)C2=O (centres unmarked) [Compound 38, 4-Bromo-N-((2-(2,6-dioxopiperidin-3-yl)-1-oxoisoindolin-5-yl)methyl)-1-methyl-1H-pyrrole-2-carboxamide]	1 to 10 µM	–	–
O=C1CCC(N2Cc3cc(CNC(=O)C4(c5ccccc5)CCCC4)ccc3C2=O)C(=O)N1 (centres unmarked) [Compound 54, N-((2-(2,6-Dioxopiperidin-3-yl)-1-oxoisoindolin-5-yl)methyl)-1-phenylcyclopentane-1-carboxamide]	10 to 50 µM	–	–
O=C1CCC(N2Cc3cc(CNC(=O)C4CCN(c5ccccc5)C4=O)ccc3C2=O)C(=O)N1 (centres unmarked) [Compound 55, N-((2-(2,6-Dioxopiperidin-3-yl)-1-oxoisoindolin-5-yl)methyl)-2-oxo-1-phenylpyrrolidine-3-carboxamide]	1 to 10 µM	–	–
